IC50 data for 28 molecules are collected here from patent US6737431B2 (Bristol-Myers Squibb Company, priority 2002, dated 2004).

One experiment deals with T1, melatonin ML1b receptor (Homo sapiens, UniProt P49286).
T1 construct: expressed in transfected cells; membrane homogenates
T1 sequence (P49286 1-362): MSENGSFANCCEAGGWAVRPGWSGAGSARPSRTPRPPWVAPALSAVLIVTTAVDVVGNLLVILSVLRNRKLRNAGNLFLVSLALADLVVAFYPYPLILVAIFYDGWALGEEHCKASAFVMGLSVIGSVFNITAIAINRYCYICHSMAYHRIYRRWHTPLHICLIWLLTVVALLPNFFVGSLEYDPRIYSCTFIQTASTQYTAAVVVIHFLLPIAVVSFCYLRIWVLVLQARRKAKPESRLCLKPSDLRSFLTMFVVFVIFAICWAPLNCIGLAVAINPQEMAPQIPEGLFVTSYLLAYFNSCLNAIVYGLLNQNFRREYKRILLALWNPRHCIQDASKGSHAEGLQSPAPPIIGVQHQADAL
Nature of the experiment: Melatonergic receptor binding, 2-[125I]-iodomelatonin, ML1b. To be noted: NIH-3T3 membranes, 0.2 nM 2-[125I]-iodomelatonin, 37° C. 1 hour. As for the experimental part: (§1) Melatonergic Receptor Binding Activity
(§2) (a) TME=50 mM Tris buffer containing 12.5 mM MgCl2, and 2 mM EDTA, pH 7.4 at 37° C., with concentrated HCl.
(§3) (b) Wash buffer: 20 mM Tris base containing 2 mM MgCl2, pH 7.4 at room temperature.
(§4) (c) 10^−4 M melatonin (10^−5 M final concentration).
(e) 2-[^125I]-iodomelatonin ML1b, 0.2 nM final concentration.
(§5) 2. Membrane Homogenates: The melatonin ML1a and ML1b receptors cDNA were individually subcloned into pcDNA3 and introduced into NIH-3T3 cells using Lipofectamine. Transformed NIH-3T3 cells resistant to geneticin (G-418) were isolated, and single colonies expressing high levels of 2[^125I]-iodomelatonin binding were isolated. Cells are maintained in DMEM supplemented with 10% calf serum and G-418 (0.5 g/liter). Cells are grown to confluency in T-175 flasks, scraped using Hank's balanced salt solution, and frozen at −80° C. For preparing membrane homogenates, pellets are thawed on ice, and re-suspended in TME buffer in the presence of 10 μg/ml aprotinin and leupeptin, and 100 μM phenylmethylsulfonylfluoride. The cells were then homogenized using a dounce homogenizer, and centrifuged. The resulting pellet was re-suspended with dounce homogenizer in TME (supplemented with the above protease inhibitors) and frozen. On the day of assay, a small aliquot was thawed on ice and re-suspended in the ice cold TME (1:50-1:100 v/v) and held on ice until assayed.
(§6) 3. Incubation: 37° C. for 1 hour. Reaction is terminated by filtration. Filters were washed 3 times.
(§7) 4. References: Reppert, S. M. et al., Neuron, 13, p. 1177-1185 (1994); and Reppert, S. M. et al., Proc. Natl. Acad. Sci. USA, 92, p. 8734-8738 (1995).
(§8) The compounds of the present invention have affinity for receptors of the endogenous pineal hormone, melatonin, as determined in receptor binding assays described above in Tables I to III for the ML1a and ML1b (human) receptors. Melatonin is involved in the regulation of a variety of biological rhythms and exerts its biological effects via interaction with specific receptors. There is evidence that administration of melatonin agonists are of clinical utility in the treatment of various conditions regulated by melatonin activity. Such conditions include depression, jet-lag, work-shift syndrome, sleep disorders, glaucoma, some disorders associated with reproduction, cancer benign prostatic hyperplasia, immune disorders, and neuroendocrine disorders.

The next experiment deals with T2, melatonin ML1a receptor (Homo sapiens, UniProt P48039).
T2 construct: expressed in transfected cells; membrane homogenates
Put plainly: Melatonergic receptor binding, 2-[125I]-iodomelatonin, ML1a. To be noted: NIH-3T3 membranes, 0.1 nM 2-[125I]-iodomelatonin, 37° C. 1 hour. As for the experimental part: as §1, §2, §3, §4
(d) 2-[^125I]-iodomelatonin ML1a, 0.1 nM final concentration.
as §5, §6, §7, §8

T2 sequence (P48039 whole entry): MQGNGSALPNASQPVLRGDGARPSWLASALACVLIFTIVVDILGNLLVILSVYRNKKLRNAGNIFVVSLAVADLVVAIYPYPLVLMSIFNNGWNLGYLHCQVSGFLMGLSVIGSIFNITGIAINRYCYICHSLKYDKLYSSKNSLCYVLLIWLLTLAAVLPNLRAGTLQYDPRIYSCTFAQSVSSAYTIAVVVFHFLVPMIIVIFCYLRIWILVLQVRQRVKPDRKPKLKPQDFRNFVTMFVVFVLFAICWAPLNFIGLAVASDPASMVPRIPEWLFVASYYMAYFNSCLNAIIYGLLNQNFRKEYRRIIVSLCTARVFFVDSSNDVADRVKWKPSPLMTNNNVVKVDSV

Usually IC50 stands for the concentration that inhibits the measured activity by half. Lower therefore signals greater potency. Take `CCc1nc2cc(-c3ccc(OC)cc3)cc(CCCNC(=O)C3CC3)c2o1` [Example 64, Cyclopropyl-N-{3-[2-ethyl-5-(4-methoxyphenyl)benzoxazol-7-yl]propyl}carboxamide]: the IC50 on melatonin ML1b receptor (Table II) and at melatonin ML1a receptor (Table II) was greater than 0.25 µM in each case.
Take `CCc1nc2cc(-c3ccccc3)cc(CCCNC(C)=O)c2o1` [Example 65, N-[3-(2-Ethyl-5-phenylbenzoxazol-7-yl)propyl]acetamide]: the figures for the IC50 on melatonin ML1b receptor (Table II) and on melatonin ML1a receptor (Table II) were 0.01 to 0.25 µM and greater than 0.25 µM, respectively.
The matching figures for `CCc1nc2cc(-c3ccccc3)cc(CCCNC(=O)c3ccccc3)c2o1` [Example 66, N-[3-(2-Ethyl-5-phenylbenzoxazol-7-yl)propyl]benzamide]: greater than 0.25 µM and greater than 0.25 µM.
Turning to `CCc1nc2cc(-c3ccccc3)cc(CCCNC(=O)C3CC3)c2o1` [Example 67, Cyclopropyl-N-[3-(2-ethyl-5-phenylbenzoxazol-7-yl)propyl]carboxamide], the 50% inhibitory concentration (IC50) on melatonin ML1b receptor (Table II) is greater than 0.25 µM; at melatonin ML1a receptor (Table II) it was 0.01 to 0.25 µM.
In the same order, the values of `CCc1nc2cc(Br)cc(CCCNC(C)=O)c2o1` [Example 68, N-[3-(5-Bromo-2-ethylbenzoxazol-7-yl)propyl]acetamide] are 0.01 to 0.25 µM and greater than 0.25 µM.
Take `CCc1nc2cc(Br)cc(CCCNC(=O)c3ccccc3)c2o1` [Example 69, N-[3-(5-Bromo-2-ethylbenzoxazol-7-yl)propyl]benzamide]: the IC50 on melatonin ML1b receptor (Table II) and on melatonin ML1a receptor (Table II) was greater than 0.25 µM throughout.
`CCc1nc2cc(Br)cc(CCCNC(=O)C3CC3)c2o1` [Example 70, N-[3-(5-Bromo-2-ethylbenzoxazol-7-yl)propyl]cyclopropylcarboxamide]: the IC50 on melatonin ML1b receptor (Table II) is 0.01 to 0.25 µM; on melatonin ML1a receptor (Table II), greater than 0.25 µM.
The matching figures for `C=Cc1cc(CCCNC(=O)c2ccccc2)c2oc(CC)nc2c1` [Example 71, N-[3-(2-Ethyl-5-vinylbenzoxazol-7-yl)propyl]benzamide]: greater than 0.25 µM and greater than 0.25 µM.
The matching figures for `C=Cc1cc(CCCNC(=O)C2CC2)c2oc(CC)nc2c1` [Example 72, Cyclopropyl-N-[3-(2-ethyl-5-vinylbenzoxazol-7-yl)propyl]carboxamide]: greater than 0.25 µM and greater than 0.25 µM.
The matching figures for `CCc1nc2ccc(-c3ccco3)c(CCCNC(C)=O)c2o1` [Example 73, N-[3-(2-Ethyl-6-(2-furyl)benzoxazol-7-yl)propyl]acetamide]: less than 0.01 µM and less than 0.01 µM.
Turning to `CCc1nc2ccc(-c3ccco3)c(CCCNC(=O)C3CC3)c2o1` [Example 75, Cyclopropyl-N-[3-(2-ethyl-6-(2-furyl)benzoxazol-7-yl)propyl]carboxamide], the values for the 50% inhibitory concentration (IC50) on melatonin ML1b receptor (Table II) and at melatonin ML1a receptor (Table II) were less than 0.01 µM and 0.01 to 0.25 µM, respectively.
For the molecule `CCc1nc2cccc([C@@H]3C[C@H]3CNC(C)=O)c2o1` [Example 76, N-{[(1R,2R)-2-(2-Ethylbenzoxazol-7-yl)cyclopropyl]methyl}acetamide], the IC50 on melatonin ML1b receptor (Table III) and at melatonin ML1a receptor (Table III) was less than 0.01 µM throughout.
Turning to `CCC(=O)NC[C@@H]1C[C@H]1c1cccc2nc(CC)oc12` [Example 77, N-{[(1R,2R)-2-(2-Ethylbenzoxazol-7-yl)cyclopropyl]methyl}propanamide], the IC50 at melatonin ML1b receptor (Table III) and on melatonin ML1a receptor (Table III) was less than 0.01 µM throughout.
Take `CCCC(=O)NC[C@@H]1C[C@H]1c1cccc2nc(CC)oc12` [Example 78, N-{[(1R,2R)-2-(2-Ethylbenzoxazol-7-yl)cyclopropyl]methyl}butanamide]: the IC50 at melatonin ML1b receptor (Table III) and at melatonin ML1a receptor (Table III) was less than 0.01 µM each time.
As for `CCc1nc2cccc([C@@H]3C[C@H]3CNC(=O)C(C)C)c2o1` [Example 79, N-{[(1R,2R)-2-(2-Ethylbenzoxazol-7-yl)cyclopropyl]methyl}-2-methylpropanamide], the IC50 at melatonin ML1b receptor (Table III) and at melatonin ML1a receptor (Table III) was less than 0.01 µM each time.
On to `CCc1nc2cccc([C@@H]3C[C@H]3CNC(=O)C3CC3)c2o1` [Example 80, N-{[(1R,2R)-2-(2-Ethylbenzoxazol-7-yl)cyclopropyl]methyl}cyclopropylcarboxamide], for which the IC50 at melatonin ML1b receptor (Table III) and on melatonin ML1a receptor (Table III) was less than 0.01 µM each time.
Consider `CCNC(=O)NC[C@@H]1C[C@H]1c1cccc2nc(CC)oc12` [Example 81, N-{[(1R,2R)-2-(2-Ethylbenzoxazol-7-yl)cyclopropyl]methyl}(ethylamino)carboxamide], for which the IC50 at melatonin ML1b receptor (Table III) and at melatonin ML1a receptor (Table III) was less than 0.01 µM each time.
Turning to `CCCc1nc2cccc([C@@H]3C[C@H]3CNC(C)=O)c2o1` [Example 82, N-{[(1R,2R)-2-(2-Propylbenzoxazol-7-yl)cyclopropyl]methyl}acetamide], the IC50 at melatonin ML1b receptor (Table III) and at melatonin ML1a receptor (Table III) was less than 0.01 µM throughout.
`CC(=O)NC[C@@H]1C[C@H]1c1cccc2nc(C(C)C)oc12` [Example 83, N-({(1R,2R)-2-[2-(Methylethyl)benzoxazol-7-yl]cyclopropyl}methyl)acetamide]: the IC50 at melatonin ML1b receptor (Table III) was less than 0.01 µM; at melatonin ML1a receptor (Table III) it was 0.01 to 0.25 µM.
The matching figures for `CCCc1nc2cccc([C@@H]3C[C@H]3CNC(=O)CC)c2o1` [Example 84, N-{[(1R,2R)-2-(2-Propylbenzoxazol-7-yl)cyclopropyl]methyl}propanamide]: less than 0.01 µM and less than 0.01 µM.
The matching figures for `CCC(=O)NC[C@@H]1C[C@H]1c1cccc2nc(C(C)C)oc12` [Example 85, N-({(1R,2R)-2-[2-(Methylethyl)benzoxazol-7-yl]cyclopropyl}methyl)propanamide]: less than 0.01 µM and less than 0.01 µM.
The matching figures for `CCCC(=O)NC[C@@H]1C[C@H]1c1cccc2nc(CCC)oc12` [Example 86, N-{[(1R,2R)-2-(2-Propylbenzoxazol-7-yl)cyclopropyl]methyl}butanamide]: less than 0.01 µM and less than 0.01 µM.
In the case of `CCCC(=O)NC[C@@H]1C[C@H]1c1cccc2nc(C(C)C)oc12` [Example 87, N-({(1R,2R)-2-[2-(Methylethyl)benzoxazol-7-yl]cyclopropyl}methyl)butanamide], the half-maximal inhibitory concentration (IC50) at melatonin ML1b receptor (Table III) and at melatonin ML1a receptor (Table III) was less than 0.01 µM each time.
Turning to `CCCc1nc2cccc([C@@H]3C[C@H]3CNC(=O)C3CC3)c2o1` [Example 90, N-{[(1R,2R)-2-(2-Propylbenzoxazol-7-yl)cyclopropyl]methyl}cyclopropylcarboxamide], the IC50 on melatonin ML1b receptor (Table III) and at melatonin ML1a receptor (Table III) was less than 0.01 µM each time.
For the molecule `CC(C)c1nc2cccc([C@@H]3C[C@H]3CNC(=O)C3CC3)c2o1` [Example 91, N-({(1R,2R)-2-[2-(Methylethyl)benzoxazol-7-yl]cyclopropyl}methyl)cyclopropylcarboxamide], the IC50 at melatonin ML1b receptor (Table III) and on melatonin ML1a receptor (Table III) was less than 0.01 µM throughout.
With `CCCc1nc2cccc([C@@H]3C[C@H]3CNC(=O)NCC)c2o1` [Example 92, N-{[(1R,2R)-2-(2-Propylbenzoxazol-7-yl)cyclopropyl]methyl}(ethylamino)carboxamide], the IC50 on melatonin ML1b receptor (Table III) and on melatonin ML1a receptor (Table III) was less than 0.01 µM throughout.
As to `CCNC(=O)NC[C@@H]1C[C@H]1c1cccc2nc(C(C)C)oc12` [Example 93, N-({(1R,2R)-2-[2-(Methylethyl)benzoxazol-7-yl]cyclopropyl}methyl)(ethylamino)carboxamide], the IC50 on melatonin ML1b receptor (Table III) and on melatonin ML1a receptor (Table III) was 0.01 to 0.25 µM each time.
“N-({(1R,2R)-2-[2-(5-Phenylbutyl)benzoxazol-7-yl]cyclopropyl}methyl)-2-methylpropanamide [Example 97]”: the concentration for half-maximal inhibition (IC50) on melatonin ML1b receptor (Table III) and on melatonin ML1a receptor (Table III) was less than 0.01 µM each time.
